Patent US8933233B2, “1,3,4-oxadiazole and 1,3,4-thiadiazole β-lactamase inhibitors” (priority 2012, dated 2015)
Where a name gives a salt, the structure may show the parent alone.

Assays:
[1] = tested on: bacterial strains that express the class D cephalosporinase OXA-15; assay: Synergy MIC / standard BLI potentiation MIC assay, strains expressing OXA-15; format: cell-based, E. coli; conditions: in presence of a β-lactam; comparator Avibactam (CCC)
Summary of the method: (§1)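 Broth microdilution in CAMHB per CLSI M07-A9, ~10^5 CFU/mL inoculum, 18–20 h at 37 °C with aeration; engineered E. coli kept with 25 μg/mL tetracycline. β-lactam 2-fold from 128 to 0.13 μg/mL with BLI fixed at 4 μg/mL, or BLI serially diluted with β-lactam fixed; MIC is lowest concentration without visible turbidity.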

[2] = tested on: bacterial strains that express KPC β-lactamases; assay: Synergy MIC / standard BLI potentiation MIC assay, strains expressing KPC β-lactamases; format: cell-based, isogenic E. coli and clinical isolates; conditions: more active for at least one KPC strain and/or better spectrum; comparator Avibactam
Summary of the method: as §1

SMILES	activity against bacterial strains that express OXA-15, compared with Avibactam [1]	activity and/or spectrum of activity against bacterial strains that express KPC β-lactamases, compared with Avibactam [2]
O=C1N2C[C@@H](CC[C@H]2c2nnc(CCNC3CCNCC3)o2)N1OS(=O)(=O)O [Compound 770, (2S,5R)-7-oxo-2-(5-(2-(piperidin-4-ylamino)ethyl)-1,3,4-oxadiazol-2-yl)-1,6-diazabicyclo[3.2.1]octan-6-yl hydrogen sulfate]	more active than Avibactam	more active than Avibactam
N=C(N)N1CC(Cc2nnc([C@@H]3CC[C@@H]4CN3C(=O)N4OS(=O)(=O)O)o2)C1 [Compound 741, (2S,5R)-2-(5-((1-carbamimidoylazetidin-3-yl)methyl)-1,3,4-oxadiazol-2-yl)-7-oxo-1,6-diazabicyclo[3.2.1]octan-6-yl hydrogen sulfate]	more active than Avibactam	more active than Avibactam
O=C1N2C[C@@H](CC[C@H]2c2nnc([C@@H]3CCNC3)o2)N1OS(=O)(=O)O [Compound 759, (2S,5R)-7-oxo-2-(5-((R)-pyrrolidin-3-yl)-1,3,4-oxadiazol-2-yl)-1,6-diazabicyclo[3.2.1]octan-6-yl hydrogen sulfate]	more active than Avibactam	more active than Avibactam
CNCCc1nnc([C@@H]2CC[C@@H]3CN2C(=O)N3OS(=O)(=O)O)o1 [Compound 722, (2S,5R)-2-(5-(2-(methylamino)ethyl)-1,3,4-oxadiazol-2-yl)-7-oxo-1,6-diazabicyclo[3.2.1]octan-6-yl hydrogen sulfate]	more active than Avibactam	more active than Avibactam
N[C@H]1C[C@H](c2nnc([C@@H]3CC[C@@H]4CN3C(=O)N4OS(=O)(=O)O)s2)C1 [Compound 783, (2S,5R)-2-(5-((1r,3S)-3-aminocyclobutyl)-1,3,4-thiadiazol-2-yl)-7-oxo-1,6-diazabicyclo[3.2.1]octan-6-yl hydrogen sulfate]	more active than Avibactam	more active than Avibactam
N=C(N)NCCc1nnc([C@@H]2CC[C@@H]3CN2C(=O)N3OS(=O)(=O)O)o1 [Compound 705, (2S,5R)-2-(5-(2-guanidinoethyl)-1,3,4-oxadiazol-2-yl)-7-oxo-1,6-diazabicyclo[3.2.1]octan-6-yl hydrogen sulfate]	more active than Avibactam	more active than Avibactam
N=C(N)NC1CC(Cc2nnc([C@@H]3CC[C@@H]4CN3C(=O)N4OS(=O)(=O)O)o2)C1 (stereo partly drawn) [Compound 752, (2S,5R)-2-(5-((3-guanidinocyclobutyl)methyl)-1,3,4-oxadiazol-2-yl)-7-oxo-1,6-diazabicyclo[3.2.1]octan-6-yl hydrogen sulfate]	more active than Avibactam	more active than Avibactam
O=C1N2C[C@@H](CC[C@H]2c2nnc(CNC3CNC3)o2)N1OS(=O)(=O)O [Compound 726, (2S,5R)-2-(5-((azetidin-3-ylamino)methyl)-1,3,4-oxadiazol-2-yl)-7-oxo-1,6-diazabicyclo[3.2.1]octan-6-yl hydrogen sulfate]	more active than Avibactam	more active than Avibactam
O=C1N2C[C@@H](CC[C@H]2c2nnc(CCCCNC3CCNCC3)o2)N1OS(=O)(=O)O [Compound 772, (2S,5R)-7-oxo-2-(5-(4-(piperidin-4-ylamino)butyl)-1,3,4-oxadiazol-2-yl)-1,6-diazabicyclo[3.2.1]octan-6-yl hydrogen sulfate]	more active than Avibactam	more active than Avibactam
N=C(N)NC[C@H](O)c1nnc([C@@H]2CC[C@@H]3CN2C(=O)N3OS(=O)(=O)O)o1 [Compound 732, (2S,5R)-2-(5-((S)-2-guanidino-1-hydroxyethyl)-1,3,4-oxadiazol-2-yl)-7-oxo-1,6-diazabicyclo[3.2.1]octan-6-yl hydrogen sulfate]	more active than Avibactam	more active than Avibactam
N=C(N)N1CC(NCc2nnc([C@@H]3CC[C@@H]4CN3C(=O)N4OS(=O)(=O)O)o2)C1 [Compound 746, (2S,5R)-2-(5-(((1-carbamimidoylazetidin-3-yl)amino)methyl)-1,3,4-oxadiazol-2-yl)-7-oxo-1,6-diazabicyclo[3.2.1]octan-6-yl hydrogen sulfate]	more active than Avibactam	more active than Avibactam
O=C1N2C[C@@H](CC[C@H]2c2nnc(CC3CCNC3)o2)N1OS(=O)(=O)O (stereo partly drawn) [Compound 764, (2S,5R)-7-oxo-2-(5-(pyrrolidin-3-ylmethyl)-1,3,4-oxadiazol-2-yl)-1,6-diazabicyclo[3.2.1]octan-6-yl hydrogen sulfate]	more active than Avibactam	more active than Avibactam
O=C1N2C[C@@H](CC[C@H]2c2nnco2)N1OS(=O)(=O)O [Compound 701, (2S,5R)-2-(1,3,4-oxadiazol-2-yl)-7-oxo-1,6-diazabicyclo[3.2.1]octan-6-yl hydrogen sulfate]	more active than Avibactam	more active than Avibactam
NC1CCN(Cc2nnc([C@@H]3CC[C@@H]4CN3C(=O)N4OS(=O)(=O)O)o2)CC1 [Compound 774, (2S,5R)-2-(5-((4-aminopiperidin-1-yl)methyl)-1,3,4-oxadiazol-2-yl)-7-oxo-1,6-diazabicyclo[3.2.1]octan-6-yl hydrogen sulfate]	more active than Avibactam	more active than Avibactam
NCCCCc1nnc([C@@H]2CC[C@@H]3CN2C(=O)N3OS(=O)(=O)O)o1 [Compound 735, (2S,5R)-2-(5-(4-aminobutyl)-1,3,4-oxadiazol-2-yl)-7-oxo-1,6-diazabicyclo[3.2.1]octan-6-yl hydrogen sulfate]	more active than Avibactam	more active than Avibactam
N=C(N)NCCc1nnc([C@@H]2CC[C@@H]3CN2C(=O)N3OS(=O)(=O)O)s1 [Compound 794, (2S,5R)-2-(5-(2-guanidinoethyl)-1,3,4-thiadiazol-2-yl)-7-oxo-1,6-diazabicyclo[3.2.1]octan-6-yl hydrogen sulfate]	more active than Avibactam	more active than Avibactam
N[C@H]1C[C@@H](c2nnc([C@@H]3CC[C@@H]4CN3C(=O)N4OS(=O)(=O)O)s2)C1 [Compound 795, (2S,5R)-2-(5-((1s,3R)-3-aminocyclobutyl)-1,3,4-thiadiazol-2-yl)-7-oxo-1,6-diazabicyclo[3.2.1]octan-6-yl hydrogen sulfate]	more active than Avibactam	more active than Avibactam
O=C1N2C[C@@H](CC[C@H]2c2nnc(C3CCNC3)o2)N1OS(=O)(=O)O (stereo partly drawn) [Compound 710, (2S,5R)-7-oxo-2-(5-(pyrrolidin-3-yl)-1,3,4-oxadiazol-2-yl)-1,6-diazabicyclo[3.2.1]octan-6-yl hydrogen sulfate]	more active than Avibactam	more active than Avibactam
O=C1N2C[C@@H](CC[C@H]2c2nnc(CN[C@H]3CCNC3)o2)N1OS(=O)(=O)O [Compound 765, (2S,5R)-7-oxo-2-(5-(((S)-pyrrolidin-3-ylamino)methyl)-1,3,4-oxadiazol-2-yl)-1,6-diazabicyclo[3.2.1]octan-6-yl hydrogen sulfate]	more active than Avibactam	more active than Avibactam
N=C(N)Nc1nnc([C@@H]2CC[C@@H]3CN2C(=O)N3OS(=O)(=O)O)o1 [Compound 738, (2S,5R)-2-(5-guanidino-1,3,4-oxadiazol-2-yl)-7-oxo-1,6-diazabicyclo[3.2.1]octan-6-yl hydrogen sulfate]	more active than Avibactam	more active than Avibactam
N[C@H]1CN[C@@H](c2nnc([C@@H]3CC[C@@H]4CN3C(=O)N4OS(=O)(=O)O)o2)C1 [Compound 761, (2S,5R)-2-(5-((2R,4R)-4-aminopyrrolidin-2-yl)-1,3,4-oxadiazol-2-yl)-7-oxo-1,6-diazabicyclo[3.2.1]octan-6-yl hydrogen sulfate]	more active than Avibactam	more active than Avibactam
